Test results from patent US20230346864A1, “Compositions and Methods for Joint Health” (Innophos, LLC, priority 2020, published 2023).

What was measured:
[1] = test system: potato 5-Lipoxygenase enzyme; assay: 5-LOX inhibition, Lipoxygenase Inhibitor Screening Assay Kit; format: biochemical; details: at 100 μM
Description: Cashew testa extract was tested for 5-LOX inhibition using the Lipoxygenase Inhibitor Screening Assay Kit (available from Cayman Chemical, Ann Arbor, Michigan, US) and potato 5-Lipoxygenase enzyme (available from Cayman Chemical). This kit measures hydroperoxides produced in the lipoxygenation reaction.
The extracts were dissolved in methanol to final working concentrations. 5-LOX enzyme, Chromagen, and Linoleic Acid solutions were prepared immediately before use. Nordihydroguaiaretic acid (‘NDGA’) was used as a positive control. 5-LOX enzyme was added to the test samples and controls and incubated for five minutes at room temperature to allow for enzyme/inhibitor interaction. Linoleic acid substrate was added to the plate to initiate the reaction, and the plate was then shaken at room temperature for 10 minutes. Chromagen was added to visualize the hydroperoxides formed during the reaction and the plate was shaken at room temperature for another five minutes. The absorbance was then read at 492 nm. Percent inhibition of the extract concentration was calculated in comparison to the uninhibited control wells.
Cashew testa extract was tested for its 5-LOX inhibition activity at 10 different concentrations (0.7, 1.5, 3.0, 6.0, 11.9, 15.6, 31.2, 62.5, 125.0 and 250.0 μg/mL).

[2] = test system: collagen-induced arthritis (CIA) model in rats; assay: CIA rats: pain sensitivity (Randall—Selitto probe); format: in vivo, Sprague—Dawley rats; details: Methotrexate 0.5 mg/kg; range over time points
Text: (§1) Collagen induced arthritis (CIA) in rats was developed and utilized to evaluate efficacy of orally administered cashew skin extract for three weeks post disease induction. The study included seven groups of rats (n=9 rats/group). The rats were purpose bred male Sprague—Dawley rats (7-8 weeks old, Charles River Laboratories Inc., Wilmington, MA). Animals were acclimated for two weeks to achieve the required body weight before being assigned randomly to their respective group. Rats (3/cage) were housed in a polypropylene cage and individually identified by numbers on their tail. Individual cages were identified with a cage card indicating project number, test article, dose level, group, and animal number. Harlan Soft cob bedding (Envigo Tekland 7087, Envigo, Indianapolis, Indiana) was used and changed at least twice/week. Animals were provided with fresh water and rodent chow diet (Teklad 2018, Envigo, Indianapolis, Indiana) ad libitum and housed in a temperature-controlled room (22.2° C.) on a 12-h light-dark cycle throughout the study.
(§2) The study rats were randomized and administered one of seven study articles as noted in Table 4— […]
(§3) Rats were evaluated for arthritis index before injection of a booster dose. […]
(§4) During the in-life period, arthritis severity index, paw thickness, ankle diameter and pain sensitivity were monitored. […]

[3] = test system: CTX-II; assay: CIA rats: urine CTX-II ELISA; format: in vivo, Rat; details: Methotrexate 0.5 mg/kg
Text: as §1
During the in-life period, arthritis severity index, paw thickness, ankle diameter and pain sensitivity were monitored. Urine and serum were collected at the end of study for biomarker analysis. […] Urinary cartilage degradation marker (CTX-II), proinflammatory cytokines (TNF-α, IL-1β, and IL-6), cartilage synthesis marker (PIIANP) and matrix degrading proteases (MMP13) were measured.
Assay. Rat urine samples were diluted 1:3 and the presence of CTX-II was measured using the Rat CTX-II ELISA kit from Mybiosource as follows. […] After the addition of stop solution, the absorbance was read at 450 nm, multiplied by dilution factor, and the concentration of CTX-II calculated based on the absorbance readings of a CTX-II standard curve.
Creatine—CTX-II amount was normalized to the amount of Creatinine in the urine using a Creatinine Parameter Assay Kit (R&D Systems) as follows. […] Absorbance was read at 492 nm, and Creatinine amount in urine was calculated based on the absorbance readings of a Creatinine standard curve. […]

[4] = test system: collagen-induced arthritis (CIA) model in rats; assay: CIA rats: ankle diameter; format: in vivo, Sprague—Dawley rats; details: days 7 to 21; Methotrexate 0.5 mg/kg
Text: as §1, §2, §3, §4

[5] = test system: PIIANP; assay: CIA rats: serum PIIANP ELISA; format: in vivo, Rat; details: Methotrexate 0.5 mg/kg
Text: as §1, with “Harlan Soft cob bedding (Envigo Tekland 7087, Envigo, Indianapolis, Indiana) was used and changed at least twice/week. Animals were provided with fresh water and rodent chow diet (Teklad 2018, Envigo, Indianapolis, Indiana) ad libitum and housed in a temperature-controlled room (22.2° C.) on a 12-h light-dark cycle throughout the study.” left out
During the in-life period, arthritis severity index, paw thickness, ankle diameter and pain sensitivity were monitored. […] Urinary cartilage degradation marker (CTX-II), proinflammatory cytokines (TNF-α, IL-1β, and IL-6), cartilage synthesis marker (PIIANP) and matrix degrading proteases (MMP13) were measured.
ELISA Assay. The presence of PIIANP was measured using the Rat Procollagen Type IIA N-Prop (PIIANP) ELISA kit (MyBiosource, San Diego, California) as follows. […] After the addition of stop solution, the absorbance was read at 450 nm and the concentration of PIIANP calculated based on the absorbance readings of a PIIANP standard curve.

[6] = test system: collagen-induced arthritis (CIA) model in rats; assay: CIA rats: arthritis severity index; format: in vivo, Sprague—Dawley rats; details: Methotrexate 0.5 mg/kg; vehicle CIA rats day 10
Text: as §1, §2, §3, §4

[7] = test system: IL-1β; assay: CIA rats: serum IL-1β ELISA; format: in vivo, Rat; details: Methotrexate 0.5 mg/kg
Text: as §1, with “Harlan Soft cob bedding (Envigo Tekland 7087, Envigo, Indianapolis, Indiana) was used and changed at least twice/week. Animals were provided with fresh water and rodent chow diet (Teklad 2018, Envigo, Indianapolis, Indiana) ad libitum and housed in a temperature-controlled room (22.2° C.) on a 12-h light-dark cycle throughout the study.” left out
During the in-life period, arthritis severity index, paw thickness, ankle diameter and pain sensitivity were monitored. […] Urinary cartilage degradation marker (CTX-II), proinflammatory cytokines (TNF-α, IL-1β, and IL-6), cartilage synthesis marker (PIIANP) and matrix degrading proteases (MMP13) were measured. […]
ELISA Assay. The presence of cytokines IL-1β/IL-6/TNF-α was measured using the Rat IL-1β/IL-6/TNF-α Quantikine ELISA kit (R&D Systems, Minneapolis, Minnesota) as follows. […] After the addition of stop solution, the absorbance was read at 450 nm and the concentration of IL-1β/IL-6/TNF-α calculated based on the absorbance readings of an IL-1β/IL-6/TNF-α standard curve.

[8] = test system: collagen-induced arthritis (CIA) model in rats; assay: CIA rats: paw thickness / paw edema; format: in vivo, Sprague—Dawley rats; details: day 7-day 21; Methotrexate 0.5 mg/kg; vs vehicle treated CIA
Text: as §1, §2, §3, §4

[9] = test system: collagen-induced arthritis (CIA) model in rats; assay: CIA rats: ankle joint histopathology (modified Mankin system); format: in vivo, Sprague—Dawley rats; details: Methotrexate 0.5 mg/kg
Text: as §1
During the in-life period, arthritis severity index, paw thickness, ankle diameter and pain sensitivity were monitored. Urine and serum were collected at the end of study for biomarker analysis. Necropsy was carried out on day 22 for all the groups post priming. At necropsy, the ankle joint from each rat was collected for histopathology analysis. Urinary cartilage degradation marker (CTX-II), proinflammatory cytokines (TNF-α, IL-1β, and IL-6), cartilage synthesis marker (PIIANP) and matrix degrading proteases (MMP13) were measured.
Procedures and Evaluations. At necropsy, the ankle joint was carefully dissected out, fixed in 10% buffered formalin, and sent to Nationwide Histology (Veradale, WA, USA) for further histopathology analysis. The fixed specimens were then decalcified with Calci-Clear Rapid for one and a half days and embedded in paraffin. Standardized 5 μm serial sections were obtained from each rat and stained with hematoxylin and eosin (HE) and Safranin 0-fast green to enable evaluation of proteoglycan content. A modified Mankin system (Mankin et al., 1981) was used to score structural and cellular alterations of articular components as indications of disease progression and/or treatment efficacy. The histological analysis was conducted by a certified Pathologist at Nationwide Histology.

Structure (SMILES)	5-LOX enzyme inhibition [1]	pain tolerance vs Vehicle treated CIA [2]	urine CTX-II, cartilage protection vs vehicle treated CIA rats ([3]; normalized with creatinine)	urine CTX-II, cartilage protection vs vehicle treated CIA rats ([3]; normalized with protein)	urine CTX-II, cartilage protection vs vehicle treated CIA rats ([3]; raw data)	reduction in ankle diameter, area under the curve [4]	increase in serum PIIANP compared to CIA+vehicle [5]	disease onset, day after priming [6]	reduction in serum level of IL-1β vs CIA rats treated with vehicle [7]	reduction in paw edema, area under the swelling curve [8]	GAG loss, lower than vehicle [9]	bone erosion, lower than vehicle [9]	cartilage destruction, lower than vehicle [9]	inflammation, lower than vehicle [9]
CC(Cc1ccc(O)c(O)c1)C(C)Cc1ccc(O)c(O)c1 (centres unmarked) [NDGA, Nordihydroguaiaretic acid]	100%	–	–	–	–	–	–	–	–	–	–	–	–	–
CN(Cc1cnc2nc(N)nc(N)c2n1)c1ccc(C(=O)N[C@@H](CCC(=O)O)C(=O)O)cc1 [MTX, Methotrexate]	–	14.1-67.1%	27.2%	22.9%	up to 53.8%	89.1%	41%	14	86.4%	90.2%	50.7%	71.2%	50.7%	55.8%
